We go through four substances from paper PMC7408072 (Pharmaceutics, 2020).

The conditions of series [1]: cited from earlier work. On the procedure: Peptide-based drugs are prone to chemical degradation when presented to enzymes during systemic circulation. Therefore, the stability of the peptide constructs was examined in serum-supplemented media and during incubation in a state-of-the-art in vitro BBB model made up of primary BCECs co-cultured with primary rat astrocytes. Despite their common peptide nature, the stability varied markedly. […] The half-life of ^125I-labelled Tat ([…]) in mouse serum h ...

For series [2] the following is noted: cited from earlier work. The text has this:
We detected 0.4% ± 0.1% of injected dose/g of TAMRA-Tat in mouse brain homogenate, which is in line with a previous study reporting 0.1% of injected dose/g of ^111In-DOTA-labelled Tat ([…]) following 1-h circulation in mice. Moreover, less TAMRA-Tat-NR2B9c and TAMRA-Tat-N-dimer appeared to accumulate in the brain compared to TAMRA-Tat. This observation is in agreement with the observed BBB permeation by the Tat-conjugated peptides in live mice, supporting our earlier notion that cargo conjugation to Tat impacts its resulting brain delivery.
This is another data set of the same source.

Series [3] has as its system bovine BCECs co-cultured with rat astrocytes. Kind of series: Peptide uptake into endothelial cells and astrocytes by confocal microscopy after fixation (bovine BBB model). It counts as cell-based. The conditions noted are these: 10 µM or 100 µM TAMRA, 3 h, fixed cells, confocal microscopy (Figure S4). The method, then: […] TEER was measured at room temperature using an Endohm 12 cup (World Precision Instruments, Sarasota, FL, USA) connected to a Millicell-ERS device (Millipore, Bedford, MA, USA). TEER was measured before application of the peptides and after each experiment. The bovine model had initial TEER values ranging from 771 to 1332 Ω·cm^2, whereas the mouse model had initial TEER values ranging from 136 to 217 Ω·cm^2.
To visualize the TAMRA-peptide taken up by the endothelial cells and astrocytes, the remaining filters (one per batch) from the permeation study using the in vitro bovine BBB model were prepared for confocal microscopy. After removal of the peptide solutions, the cells were fixed with 3% paraformaldehyde in PBS for 15 min at room temperature with horizontal shaking (90 rpm). The cells were washed thrice with PBS prior to permeabilization in 0.1% Triton X-100 in PBS for 5 min and blocking in 2% BSA in PBS for 30 min at room temperature with horizontal shaking (90 rpm). The filter inserts were cut out, divided into smaller pieces, and transferred to a 48-well plate to stain zonula ocludens-1 (ZO-1) in the BCECs and F-actin in the astrocytes. Filter pieces with BCECs facing upwards were incubated with a primary antibody directed against ZO-1 (1:100 in PBS with 2% BSA; Thermo Fischer Scientific, Bedford, MA, USA, no. 617300) for 2 h at room temperature. Subsequently, the filters were washed thrice for 5 min in PBS with 2% BSA prior to 30 min incubation with an Alexa-488-conjugated secondary antibody (1:100 in PBS with 2% BSA; Thermo Fischer Scientific, Bedford, MA, USA, no. A11008). Filter pieces with astrocytes facing upwards were incubated with Alexa-488-conjugated phalloidin (1:133 in PBS with 2% BSA; Thermo Fischer Scientific, Bedford, MA, USA) for 30 min at room temperature and washed thrice for 5 min in PBS with 2% BSA. The filter pieces were mounted on glass slides under coverslips using Immu-Mount™ mounting media and imaged using single wavelength excitation a Zeiss 510 laser-scanning confocal microscope (Carl Zeiss, Jena, Germany).

Series [4] is described as follows: differentiation medium (cell media supplemented with 10% fetal bovine serum (FBS)). The conditions noted are these: 37 °C, up to 4 h.
Series [5] in a line: luminal incubation on bovine brain endothelial cells co-cultured with rat astrocytes in FBS-free differentiation medium. The conditions noted are these: 37 °C, up to 4 h.

As to “GRKKRRQRRRPPQ [^111In-DOTA-labelled Tat]”, the “half-life in human serum” value in series [1] was 8.8 h. For the same substance, the “brain level following 1-h circulation in mice” value in series [2] was 0.1 % of injected dose/g. For TAMRA [reference compound], the “uptake of TAMRA as a single entity into the endothelial cells or the astrocytes” value in series [3] is recorded as “not internalized”. With TAMRA-KLSSIESDV, the not cleaved in series [4] is given as 92.0% ± 12.6% of the initial concentration remaining after 4 h; in series [5], 95.7% ± 1.6% remaining after 4 h. Take YGRKKRRQRRR [^125I-labelled Tat]: the “half-life in mouse serum” value in series [1] is recorded as 2.7 min.
